# Where a name gives a salt, the structure may show the parent alone. Read-outs that look alike come from different tables or passages of the source.
# Columns and labels:
# [1] = molecular target: T1, SARS-CoV-2 PLpro (nsp3 1564–1878) (Severe acute respiratory syndrome coronavirus 2, UniProt P0DTD1); test: biochemical; set-up: FRET-quenched peptide (Pro3) cleavage by PLpro, 10 min pre-incubation, slope over 20 min, normalised to no-compound control; conditions: low concentration screen, read-out: % of control remaining
# [2] = molecular target: T1, SARS-CoV-2 PLpro (nsp3 1564–1878); test: biochemical; set-up: FRET-quenched peptide (Pro3) cleavage by PLpro, 10 min pre-incubation, slope over 20 min, normalised to no-compound control; conditions: high concentration screen, read-out: % of control remaining
# Protocol: The plates were organized with columns 3–22 containing the compounds; the remaining columns were used for reaction controls including substrate only and substrate with enzyme but no compound (Figure 3Aii). The PLpro enzyme was pre-incubated with the compounds for 10 min, and then the reaction was initiated by the addition of substrate. […] We incubated the inhibitors with PLpro before the enzymatic reaction so that the slow-binding inhibitors will not be missed out [21]. […] Fluorescence was read on a Spark multimode microplate reader (Tecan) with an excitation wavelength at 330 nm and emission wavelength at 420 nm. […] An amount of 5 µl of the enzyme was pre-incubated with compounds for 10 min before the addition of 15 µl substrate. Fluorescence was monitored at 2 min for 20 min with 3 min intervals giving a total of seven readings.
smiles,measurement,setting,value
O=C(O)c1ccc2c3c1cccc3c(=O)n1c3ccccc3nc21 [STO-609],remaining activity at 1.25 µM,[1]; Well no.=2658,90%
same,remaining activity at 3.75 µM,[2]; Well no.=2658,89.5%
CN(C)S(=O)(=O)c1ccc2c(c1)/C(=C/c1cc3c([nH]1)CCCC3)C(=O)N2 [SU6656],remaining activity at 1.25 µM,[1]; Well no.=2500,94.8%
same,remaining activity at 1.25 µM,[1]; Well no.=8074,101%
same,remaining activity at 3.75 µM,[2]; Well no.=2500,99.1%
same,remaining activity at 3.75 µM,[2]; Well no.=8074,98.5%
COc1ccc2c(c1)/C(=C/c1cnc[nH]1)C(=O)N2 [SU9516],remaining activity at 1.25 µM,[1]; Well no.=2660,96.5%
same,remaining activity at 3.75 µM,[2]; Well no.=2660,94.4%
Cc1[nH]c(/C=C2\C(=O)Nc3ccc(S(=O)(=O)N(C)c4cccc(Cl)c4)cc32)c(C)c1C(=O)N1CCN(C)CC1 [SU11274],remaining activity at 1.25 µM,[1]; Well no.=8164,95.8%
same,remaining activity at 3.75 µM,[2]; Well no.=8164,94.4%
CCN(CC)CCNC(=O)c1c(C)[nH]c(/C=C2\C(=O)Nc3ccc(Cl)cc32)c1C [SU11652],remaining activity at 1.25 µM,[1]; Well no.=2565,93.6%
same,remaining activity at 3.75 µM,[2]; Well no.=2565,93.7%
"CN(C)c1ccc(/C=C2\C(=O)Nc3ccccc32)cc1 [SU 4312 - 3-[[4-(dimethylamino)phenyl]methylene]-1,3-dihydro-2H-indol-2-one]",remaining activity at 1.25 µM,[1]; Well no.=2430,106%
same,remaining activity at 3.75 µM,[2]; Well no.=2430,109%
CN(C)c1ccc(/C=C2\C(=O)Nc3ccccc32)cc1 [SU 4312],remaining activity at 1.25 µM,[1]; Well no.=1179,97.9%
same,remaining activity at 3.75 µM,[2]; Well no.=1179,101%
Cc1c[nH]c(/C=C2\C(=O)Nc3ccccc32)c1CCC(=O)O [SU-5402],remaining activity at 1.25 µM,[1]; Well no.=3037,96.3%
same,remaining activity at 3.75 µM,[2]; Well no.=3037,95.9%
CCCC[S+]([O-])c1sc2nc(-c3cccs3)cc(-c3ccccc3)c2c1N (stereo not drawn) [SW033291],remaining activity at 1.25 µM,[1]; Well no.=8674,101%
same,remaining activity at 3.75 µM,[2]; Well no.=8674,97.5%
CCc1cc2c(=O)c(-c3nc4ccccc4s3)coc2c(CN2CCCCC2)c1O [SZL P1-41],remaining activity at 1.25 µM,[1]; Well no.=6694,103%
same,remaining activity at 3.75 µM,[2]; Well no.=6694,102%
C[C@H](NCc1ccc(OCc2cccc(F)c2)cc1)C(N)=O [Safinamide mesylate salt],remaining activity at 1.25 µM,[1]; Well no.=5442,89.5%
same,remaining activity at 3.75 µM,[2]; Well no.=5442,94.5%
CC(C)(C)NCC(O)c1ccc(O)c(CO)c1 (stereo not drawn) [Salbutamol (hemisulfate)],remaining activity at 1.25 µM,[1]; Well no.=7577,95.6%
same,remaining activity at 3.75 µM,[2]; Well no.=7577,96.7%
CC(C)(C)NCC(O)c1ccc(O)c(CO)c1 (stereo not drawn) [Salbutamol],remaining activity at 1.25 µM,[1]; Well no.=1366,101%
same,remaining activity at 3.75 µM,[2]; Well no.=1366,101%
CC[C@@H](C(=O)[C@@H](C)[C@@H](O)[C@H](C)[C@@H]1O[C@@H]([C@@H](CC)C(=O)O)CC[C@@H]1C)[C@H]1O[C@]2(C=C[C@@H](O)[C@]3(CC[C@@](C)([C@H]4CC[C@](O)(CC)[C@H](C)O4)O3)O2)[C@H](C)C[C@@H]1C [Salinomycin],remaining activity at 1.25 µM,[1]; Well no.=3499,104%
same,remaining activity at 3.75 µM,[2]; Well no.=3499,102%
CC(C)=CCC/C(C)=C/CC/C(C)=C/CSc1ccccc1C(=O)O [Salirasib],remaining activity at 1.25 µM,[1]; Well no.=6668,104%
same,remaining activity at 3.75 µM,[2]; Well no.=6668,105%
OCc1cc(C(O)CNCCCCCCOCCCCc2ccccc2)ccc1O (stereo not drawn) [Salmeterol],remaining activity at 1.25 µM,[1]; Well no.=1414,98.7%
same,remaining activity at 3.75 µM,[2]; Well no.=1414,99.5%
COc1cc2c(cc1O)CCN[C@@H]2C [Salsoline],remaining activity at 1.25 µM,[1]; Well no.=3715,100%
same,remaining activity at 3.75 µM,[2]; Well no.=3715,102%
O=C(/C=C/c1ccccc1)NC(NC(=S)Nc1cccc2cccnc12)C(Cl)(Cl)Cl (stereo not drawn) [Salubrinal],remaining activity at 1.25 µM,[1]; Well no.=4877,98.9%
same,remaining activity at 3.75 µM,[2]; Well no.=4877,99.5%
C[n+]1cc2c3c(ccc2c2ccc4cc5c(cc4c21)OCO5)OCO3 [Sanguinarine (chloride)],remaining activity at 1.25 µM,[1]; Well no.=6636,99.4%
same,remaining activity at 3.75 µM,[2]; Well no.=6636,98.9%
C[n+]1cc2c3c(ccc2c2ccc4cc5c(cc4c21)OCO5)OCO3 [Sanguinarine chloride],remaining activity at 1.25 µM,[1]; Well no.=1458,87.2%
same,remaining activity at 3.75 µM,[2]; Well no.=1458,86.2%
C[n+]1cc2c3c(ccc2c2ccc4cc5c(cc4c21)OCO5)OCO3 [Sanguinarine],remaining activity at 1.25 µM,[1]; Well no.=3779,94.3%
same,remaining activity at 3.75 µM,[2]; Well no.=3779,90.1%
CC1=C2[C@H]3OC(=O)[C@@H](C)[C@@H]3CC[C@@]2(C)C=CC1=O [Santonin],remaining activity at 1.25 µM,[1]; Well no.=3717,90%
same,remaining activity at 3.75 µM,[2]; Well no.=3717,95.8%
CCCCCCCCCCCCCCCC(=O)Nc1ccn([C@@H]2O[C@H](CO)[C@@H](O)[C@@H]2C#N)c(=O)n1 [Sapacitabine],remaining activity at 1.25 µM,[1]; Well no.=7908,98.8%
same,remaining activity at 3.75 µM,[2]; Well no.=7908,102%
O=C(O)c1cn(-c2ccc(F)cc2)c2cc(N3CCNCC3)c(F)cc2c1=O [Sarafloxacin],remaining activity at 1.25 µM,[1]; Well no.=2241,101%
same,remaining activity at 3.75 µM,[2]; Well no.=2241,101%
CNCC(=O)O [Sarcosine],remaining activity at 1.25 µM,[1]; Well no.=6727,103%
same,remaining activity at 3.75 µM,[2]; Well no.=6727,102%
COc1cccc(CCc2ccccc2OCC(CN(C)C)OC(=O)CCC(=O)O)c1 (stereo not drawn) [Sarpogrelate (hydrochloride)],remaining activity at 1.25 µM,[1]; Well no.=6228,106%
same,remaining activity at 3.75 µM,[2]; Well no.=6228,96.1%
C[C@H]1CC[C@@]2(OC1)O[C@H]1C[C@H]3[C@@H]4CC[C@@H]5C[C@@H](O)CC[C@]5(C)[C@H]4CC[C@]3(C)[C@H]1[C@@H]2C [Sarsasapogenin],remaining activity at 1.25 µM,[1]; Well no.=3102,95%
same,remaining activity at 3.75 µM,[2]; Well no.=3102,92.8%
N#C[C@@H]1C[C@@H]2C[C@@H]2N1C(=O)[C@@H](N)C12CC3CC(CC(O)(C3)C1)C2 [Saxagliptin hydrate],remaining activity at 1.25 µM,[1]; Well no.=8254,104%
same,remaining activity at 3.75 µM,[2]; Well no.=8254,102%
COc1cc2c(c(OC)c1OC)-c1c(cc(OC)c(OC)c1OC)C[C@](C)(O)[C@@H](C)C2 [Schisandrin],remaining activity at 1.25 µM,[1]; Well no.=5408,95.6%
same,remaining activity at 3.75 µM,[2]; Well no.=5408,101%
C=C[C@](C)(O)CC[C@@H]1[C@@]2(C)CCCC(C)(C)[C@@H]2CC[C@@]1(C)O [Sclareol],remaining activity at 1.25 µM,[1]; Well no.=3388,91.2%
same,remaining activity at 3.75 µM,[2]; Well no.=3388,96.1%
CC[C@H](C)/C=C(C)/C=C/C1=CC2=C(Cl)C(=O)[C@](C)(OC(C)=O)C(=O)C2=CO1 [Sclerotiorin],remaining activity at 1.25 µM,[1]; Well no.=3604,100%
same,remaining activity at 3.75 µM,[2]; Well no.=3604,98.6%
CN1[C@@H]2CC(O)C[C@H]1[C@@H]1O[C@@H]12 (stereo partly drawn) [Scopine (hydrochloride)],remaining activity at 1.25 µM,[1]; Well no.=6555,94.2%
same,remaining activity at 3.75 µM,[2]; Well no.=6555,101%
CN1[C@@H]2CC(O)C[C@H]1[C@@H]1O[C@@H]12 (stereo partly drawn) [Scopine HCl],remaining activity at 1.25 µM,[1]; Well no.=4914,87.1%
same,remaining activity at 3.75 µM,[2]; Well no.=4914,84%
CN1[C@@H]2CC(O)C[C@H]1[C@@H]1O[C@@H]12 (stereo partly drawn) [Scopine],remaining activity at 1.25 µM,[1]; Well no.=4910,95.8%
same,remaining activity at 3.75 µM,[2]; Well no.=4910,92.3%
CN1[C@@H]2C[C@@H](OC(=O)[C@H](CO)c3ccccc3)C[C@H]1[C@@H]1O[C@@H]12 [Scopolamine (hydrobromide)],remaining activity at 1.25 µM,[1]; Well no.=6670,102%
same,remaining activity at 3.75 µM,[2]; Well no.=6670,105%
